This is an account of results in patent publication US20080255192A1, “Methods and Compositions for Selectin Inhibition” (Wyeth, priority 2007, published 2008).

Structures are written as SMILES. Bounds are passed on as bounds.

The assay concerns the target T1, P-selectin/PSGL-1 interaction (Homo sapiens, UniProt P16109).
T1 construct: comprised of the lectin and epidermal growth factor-like (EGF) domains expressed in CHO cells; made in house; host or cells: CHO cells (P-LE)
T1 sequence (P16109 42-198): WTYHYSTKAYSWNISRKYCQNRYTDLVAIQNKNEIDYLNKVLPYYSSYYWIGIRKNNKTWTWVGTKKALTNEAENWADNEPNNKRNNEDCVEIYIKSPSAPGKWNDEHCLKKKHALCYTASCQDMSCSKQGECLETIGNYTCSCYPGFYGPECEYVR
The experiment in a line: Biacore P-Selectin/PSGL-1 Inhibition Assay (surface plasmon resonance). The assay is classed as binding. Particulars: 250 uM test compound, 500 nM P.LE, immobilized PSGL-1 19ek, 10% DMSO, pH 7.4. The procedure: Surface plasmon resonance assays were performed on a Biacore 3000 instrument (Biacore Inc. Piscataway, N.J.) at 25° C. at a flow rate of 30 μL/minute and each assay consisted of a 60-second equilibration, a 60-μL sample injection (kinject), and a 300-second dissociation.
A purified, monomeric, truncated form of human PSGL-1, “19ek”, that contained all the necessary P-selectin binding determinants (see Goetz, et al., J. Cell Biol., 1997, 137: 509-519; and Sako, et al., Cell, 1995, 83: 323-331) was biotinylated via amine chemistry (Sulfo-NHS-LC-Biotin, Peirce) at a unique C-terminal lysine residue (see Somers, et al., Cell, 2000, 103: 467-479) and immobilized on a Biacore SA sensor chip (Biacore Inc.), using an HBS-EP buffer (Biacore Inc.), and the target 600-700 RU. The coated chip was re-equilibrated with an HBS-P buffer (Biacore Inc.) to which 1 mM CaCl2 and 1 mM MgCl2 (both from Fisher) were added to ensure sufficient calcium for the calcium-dependent interaction between the receptor and the ligand.
Test compounds were incubated for 1 hour in a 1.1× Biacore assay buffer. Each solution was centrifuged through a 0.2 µm filter, using a 96-well plate format (Millipore). Glycyrrhizin tri-sodium salt (TCI) was prepared as a positive control in parallel with the test compounds, in the same manner described above.
A soluble recombinant truncated form of human P-selectin, P-LE, comprised of the lectin and epidermal growth factor-like (EGF) domains expressed in CHO cells (see Somers, et al., Cell, 2000, 103: 467-479) was added to each filtered test compound solution. Final concentrations of reagents were 500 nM P.LE, 250 or 500 μM test compound (depending on structure) or 1 mM glycyrrhizin, 10% DMSO, and 1× Biacore buffer ([…], 150 mM NaCl, 1 mM CaCl2, and 1 mM MgCl2 (all reagents from Fisher)), with a pH of 7.4. Compounds active at 250 μM were titrated to further define activity. Test samples were supplied to the Biacore instrument in a 96-well plate.
The Biacore raw data file was exported as a text file to an Excel spreadsheet, where the buffer blanks bracketing the samples were averaged for each Biacore instrument flow cell (Fc), and subtracted from the averaged uninhibited P.LE samples and from all the other samples. The reference signal from Fcl (uncoated) was then subtracted from its corresponding active (coated) signal for each injection, a process known as double referencing (see Myszka, J. Mol. Recognit., 1999, 12(5): 279-284). The percent inhibition of binding was calculated by dividing the reference-subtracted inhibited signal by the reference-subtracted uninhibited signal, subtracting this value from 1, and multiplying the resulting value by 100. The replicate percent inhibition values were averaged and expressed as the mean ±standard deviation. The inter-experiment standard deviation of calculated percent inhibitions in the Biacore assay was ±5.
In general terms: Surface plasmon resonance follows binding to a sensor surface in real time, without labels.
`CC(C)c1cccc2c(C(=O)O)c(O)c(C(C)Cc3ccccc3)nc12` (stereo not drawn) [Compound 133, 3-Hydroxy-8-isopropyl-2-(1-phenylpropan-2-yl)quinoline-4-carboxylic acid]: the inhibition (as a rule, the share of the control response that was lost under treatment) at 250 µM came to 64%.

On to `O=C(O)c1c(O)c(C2(c3ccc(F)cc3)CC2)nc2cc(Br)ccc12` [Compound 74, 7-bromo-2-(1-(4-fluorophenyl)cyclopropyl)-3-hydroxyquinoline-4-carboxylic acid], for which testing at 250 µM gave an inhibition of 10%.

Turning to `CC(C)c1cccc2c(C(=O)O)c(O)c(C3(c4ccccc4)CC3)nc12` [Compound 44, 3-hydroxy-8-isopropyl-2-(1-phenylcyclopropyl)quinoline-4-carboxylic acid], the inhibition at 250 µM came out at 63%.

With `O=C(O)c1c(O)c(C2(c3ccc(Cl)cc3)CC2)nc2ccc(Cl)cc12` [Compound 22, 6-chloro-2-(1-(4-chlorophenyl)cyclopropyl)-3-hydroxyquinoline-4-carboxylic acid], testing at 250 µM gave an inhibition of 26%.

Take `O=C(O)c1c(O)c(C2(c3ccc(Cl)cc3)CC2)nc2c(C(F)(F)F)cc(Br)cc12` [Compound 103, 6-bromo-2-(1-(4-chlorophenyl)cyclopropyl)-3-hydroxy-8-(trifluoromethyl)quinoline-4-carboxylic acid]: the inhibition at 250 µM was not above 10%.

The compound `O=C(O)c1c(O)c(C2(c3ccccc3)CC2)nc2c(C(F)(F)F)cc(Br)cc12` [Compound 107, 6-bromo-3-hydroxy-2-(1-phenylcyclopropyl)-8-(trifluoromethyl)quinoline-4-carboxylic acid] had an inhibition at 250 µM of 41%.

In the case of `O=C(O)c1c(O)c(C2(c3cccc(C(F)(F)F)c3)CC2)nc2c(C(F)(F)F)cccc12` [Compound 57, 3-hydroxy-8-(trifluoromethyl)-2-(1-(3-(trifluoromethyl)phenyl)cyclopropyl)quinoline-4-carboxylic acid], at 250 µM the inhibition was 42%.

In turn, `CCc1cccc2c(C(=O)O)c(O)c(C3(c4ccc(F)cc4)CC3)nc12` [Compound 65, 8-ethyl-2-(1-(4-fluorophenyl)cyclopropyl)-3-hydroxyquinoline-4-carboxylic acid] registered an inhibition at 250 µM of 31%.

For the compound `O=C(O)c1c(O)c(C2(c3ccc(F)cc3)CC2)nc2c(-c3ccccc3)cccc12` [Compound 77], the inhibition at 250 µM is 37%.

`O=C(O)c1c(O)c(C2(c3ccc(Cl)cc3)CC2)nc2c(OC(F)(F)F)cccc12` [Compound 1, 2-(1-(4-chlorophenyl)cyclopropyl)-3-hydroxy-8-(trifluoromethoxy)quinoline-4-carboxylic acid] came in with an inhibition at 250 µM of 37%.

Take `CCc1ccc2c(C(=O)O)c(O)c(C3(c4ccccc4)CC3)nc2c1` [Compound 28, 7-ethyl-3-hydroxy-2-(1-phenylcyclopropyl)quinoline-4-carboxylic acid]: the inhibition at 250 µM is not above 10%.

In turn, `O=C(O)c1c(O)c(C2(c3cccc(Cl)c3)CC2)nc2c(C(F)(F)F)cccc12` [Compound 54, 2-(1-(3-chlorophenyl)cyclopropyl)-3-hydroxy-8-(trifluoromethyl)quinoline-4-carboxylic acid] came in with an inhibition at 250 µM of 66%.

Take `Cc1cccc2c(C(=O)O)c(O)c(C3(c4ccc(Cl)cc4)CC3)nc12` [Compound 11, 2-(1-(4-chlorophenyl)cyclopropyl)-3-hydroxy-8-methylquinoline-4-carboxylic acid]: the inhibition at 250 µM worked out at 43%.

Take `O=C(O)c1c(O)c(C2(c3ccc(F)cc3)CC2)nc2c(-c3ccsc3)cccc12` [Compound 71, 2-(1-(4-fluorophenyl)cyclopropyl)-3-hydroxy-8-(thiophen-3-yl)quinoline-4-carboxylic acid]: the inhibition at 250 µM worked out at 64%.

For `O=C(O)c1c(O)c(C2(c3ccccc3)CC2)nc2c(C(O)(C(F)(F)F)C(F)(F)F)cccc12` [Compound 49, 8-(1,1,1,3,3,3-hexafluoro-2-hydroxypropan-2-yl)-3-hydroxy-2-(1-phenylcyclopropyl)quinoline-4-carboxylic acid], the inhibition at 250 µM turned out to be 58%.
